Reference: patent US8685924B2, “Preventives/remedies for stress urinary incontinence and method of screening the same” (Takeda Pharmaceutical Company Limited, priority 2004, dated 2014)
Where “and” joins values, the source holds several entries; their conditions need not be identical. Equal values may be shown once.

Experiments:
[1] = tested on: urethane-anesthetized female rats; assay: Leak point pressure by abdominal wall-electrically stimulating method, serotonin 5-HT receptor agonists (Example 3); assay type: in vivo, rat; settings: for leak point pressure after drug administration / leak point pressure increase / leak point pressure before drug administration: i.v., mean ± SEM; for leak point pressure before drug administration: baseline; for effect on leak point pressure: intravenous administration
Protocol: SD female rats (body weight 180-350 g) were anesthetized with urethane (Wako Pure Chemical Industries, Ltd.), and the spinal cord was transected at T8-9 level to eliminate the reflex voiding. In addition, the nerve to the iliococcygeus muscle/pubococcygeus muscle on the one side was transected. During operation, halothane (Takeda Pharmaceutical Company Limited) anesthesia was added when necessary. A catheter (PE-90, Clay Adams) was inserted into the bladder and secured with a ligature, and the incised part of each of the abdominal muscle and skin was closed with sutures. The abdominal skin near the diaphragm was incised at two left and right positions to newly expose the abdominal muscle. An Evans Blue dye (Merck) solution was injected into the bladder, and the bladder volume was adjusted to 0.2-0.3 ml. The bladder catheter was connected to a pressure transducer, and the signals of the transducer were sent to a computer via an amplifier (blood pressure amplification unit AP-641G; NIHON KOHDEN) and an analog-to-digital converter (BIOPAC; MP100), and recorded on a hard disc. The data were analyzed on a computer using software (BIOPAC; AcqKnowledge). The exposed abdominal muscle was electrostimulated using an electrostimulator (SEN-3301; NIHON KODEN) and an isolator (SS-202J; NIHON KODEN), and the presence or absence of incontinence from the meatus urethra was observed. The electrostimulation was applied at a voltage of 2.5-50 V, duration of 0.5 milisec, and frequency 50 Hz for 1 sec, thereby gradually increasing the intravesical pressure. The peak intravesical pressure during stimulation of the abdominal wall was measured and, of the trials with observed incontinence, the lowest peak intravesical pressure was defined as the leak point pressure. Serotonin 5-HT receptor agonist, WAY-161503 (5-HT2C receptor agonist), WAY-163909 (5-HT2C receptor agonist), DOI (5-HT2A/2B/2C receptor agonist), mCPP (5-HT2B/2C receptor partial agonist), eltoprazine (5-HT1A/1B/2C receptor partial agonist), 8-OH-DPAT (5-HT1A receptor agonist), sumatryptan (5-HT1B/1D receptor agonist) and BW723C86 (5-HT2B receptor agonist) were intravenously administered, and the leak point pressure was compared before and after the administration. DOI, mCPP and eltoprazine were dissolved in saline, and other drugs were dissolved in DMA/PEG400 (1:1), and they were intravenously administered at 1 ml/kg and 0.5 mg/kg, respectively. Depending on the experiment, RS-102221 (serotonin 5-HT2C receptor antagonist) or SB221284 (serotonin 5-HT2B/2C receptor antagonist) was intravenously administered 5 min before WAY-161503 or WAY-163909 administration, and an antagonistic effect against the WAY-161503 or WAY-163909-induced increment of the leak point pressure was examined. RS-102221 and SB221284 were both dissolved in DMA/PEG400 (1:1) and intravenously administered at 0.5 ml/kg.

[2] = tested on: urethane-anesthetized female rats; assay: Leak point pressure by direct compressing of the bladder (Example 4); assay type: in vivo, rat; settings: for leak point pressure after drug administration / leak point pressure increase / leak point pressure before drug administration: i.v., mean ± SEM; for leak point pressure after drug administration: 20 min later; for leak point pressure before drug administration: baseline; for effect on leak point pressure: intravenous administration
Protocol: SD female rats (body weight 180-350 g) were anesthetized with urethane (Wako Pure Chemical Industries, Ltd.), and halothane (Takeda Pharmaceutical Company Limited) anesthesia was added when necessary during operation.
The spinal cord was transected at T8-9 level to eliminate the reflex voiding. The lower abdomen was incised in the median line, a catheter for intravesical pressure measurement (PE-90, Clay Adams) was inserted into the bladder and secured with a ligature, and the intravesical pressure was measured via a pressure transducer. Urine was emptized in advance by bilaterally pressing the bladder with two swabs, and a 0.1% Evans blue (Merck) solution (0.4 mL) was injected into the bladder. The bladder was gradually compressed bilaterally with two swabs, and the intravesical pressure upon saline leakage from the urethral orifice was measured and defined as a leak point pressure. The measurement of the leak point pressure was repeated, and the average value of the final five stable measures was taken as the value before drug administration. Thereafter, the drug was intravenously administered, the leak point pressure was measured again 20 min later, and the value after the drug administration was determined. DOI, mCPP and eltoprazine were dissolved in saline, and other drugs were dissolved in DMA/PEG400 (1:1), and intravenously administered at 1 ml/kg and 0.5 mg/kg, respectively. Depending on the experiment, RS-102221 or SB221284 (showing serotonin 5-HT2C receptor antagonist activity) was administered, 5 min later, WAY-161503 or WAY-163909 was administered, leak point pressure was measured 10 min later, and a competitive assay with the action of WAY-161503 or WAY-163909 was performed. RS-102221 and SB221284 were both dissolved in DMA/PEG400 (1:1), and intravenously administered at 0.5 ml/kg.

For CCCN(CCC)C1CCc2cccc(O)c2C1 (centres unmarked) [8OH-DPAT], the “leak point pressure after drug administration” value ([1]; 0.3 mg/kg) was 47.1 ± 9.4 cmH2O, the “leak point pressure increase” value ([1]; 0.3 mg/kg) was −1.5 ± 1.2 cmH2O and the “leak point pressure before drug administration” value ([1]; dose group 0.3 mg/kg) was 48.5 ± 9.6 cmH2O. For the same compound, the “effect on leak point pressure” value [1] was “showed no effect”.

With CC(N)Cc1c[nH]c2ccc(OCc3cccs3)cc12 (centres unmarked) [BW723C86] the “leak point pressure after drug administration” value ([1]; 3 mg/kg) was 48.9 ± 4.6 cmH2O, the “leak point pressure increase” value ([1]; 3 mg/kg) was 2.5 ± 3.5 cmH2O and the “leak point pressure after drug administration” value ([1]; 10 mg/kg) was 48.6 ± 3.2 cmH2O. For the same compound, the “leak point pressure increase” value ([1]; 10 mg/kg) was −0.7 ± 3.9 cmH2O, the “leak point pressure before drug administration” value ([1]; dose group 3 mg/kg) was 46.4 ± 5.6 cmH2O and the “leak point pressure before drug administration” value ([1]; dose group 10 mg/kg) was 49.3 ± 6.5 cmH2O. For the same compound, the “effect on leak point pressure” value [1] was “showed no effect”.

COc1cc(CC(C)N)c(OC)cc1I (centres unmarked) [DOI] was tested, and the “leak point pressure after drug administration” value ([1]; 0.01 mg/kg) was 39.7 ± 5.2 cmH2O, the “leak point pressure increase” value ([1]; 0.01 mg/kg) was 3.2 ± 3.3 cmH2O and the “leak point pressure after drug administration” value ([1]; 0.03 mg/kg) was 50.1 ± 7.1 cmH2O. For the same compound, the “leak point pressure increase” value ([1]; 0.03 mg/kg) was 5.9 ± 1.9 cmH2O, the “leak point pressure after drug administration” value ([1]; 0.1 mg/kg) was 63.2 ± 5.7 cmH2O and the “leak point pressure increase” value ([1]; 0.1 mg/kg) was 18.7 ± 2.9 cmH2O. For the same compound, the “leak point pressure after drug administration” value ([1]; 0.3 mg/kg) was 67.9 ± 11.5 cmH2O, the “leak point pressure increase” value ([1]; 0.3 mg/kg) was 27.2 ± 3.9 cmH2O and the “leak point pressure before drug administration” value ([1]; dose group 0.01 mg/kg) was 36.4 ± 7.6 cmH2O. The “leak point pressure before drug administration” value ([1]; dose group 0.03 mg/kg) was 44.2 ± 7.2 cmH2O, the “leak point pressure before drug administration” value ([1]; dose group 0.1 mg/kg) was 44.5 ± 5.8 cmH2O and the “leak point pressure before drug administration” value ([1]; dose group 0.3 mg/kg) was 40.7 ± 8.7 cmH2O. For the same compound, the “effect on leak point pressure” value [1] was “increased the leak point pressure significantly”, the “leak point pressure after drug administration” value ([2]; 0.01 mg/kg) was 68.5 ± 5.7 cmH2O and the “leak point pressure increase” value ([2]; 0.01 mg/kg) was 2.9 ± 2.0 cmH2O. For the same compound, the “leak point pressure after drug administration” value ([2]; 0.03 mg/kg) was 71.1 ± 6.7 cmH2O, the “leak point pressure increase” value ([2]; 0.03 mg/kg) was 6.2 ± 2.9 cmH2O and the “leak point pressure after drug administration” value ([2]; 0.1 mg/kg) was 79.5 ± 2.6 cmH2O. The “leak point pressure increase” value ([2]; 0.1 mg/kg) was 14.3 ± 2.8 cmH2O, the “leak point pressure after drug administration” value ([2]; 0.3 mg/kg) was 85.7 ± 6.0 cmH2O and the “leak point pressure increase” value ([2]; 0.3 mg/kg) was 18.7 ± 2.9 cmH2O. For the same compound, the “leak point pressure after drug administration” value ([2]; 1 mg/kg) was 82.9 ± 3.6 cmH2O, the “leak point pressure increase” value ([2]; 1 mg/kg) was 22.6 ± 2.5 cmH2O and the “leak point pressure before drug administration” value ([2]; dose group 0.01 mg/kg) was 65.7 ± 6.3 cmH2O. The “leak point pressure before drug administration” value ([2]; dose group 0.03 mg/kg) was 64.9 ± 5.4 cmH2O, the “leak point pressure before drug administration” value ([2]; dose group 0.1 mg/kg) was 65.2 ± 3.6 cmH2O and the “leak point pressure before drug administration” value ([2]; dose group 0.3 mg/kg) was 67.0 ± 4.3 cmH2O. For the same compound, the “leak point pressure before drug administration” value ([2]; dose group 1 mg/kg) was 60.3 ± 3.5 cmH2O and the “effect on leak point pressure” value [2] was “increased the leak point pressure significantly”.

In the case of c1cc2c3c(c1)[C@@H]1CCC[C@@H]1N3CCNC2 [WAY-163907], the “leak point pressure after drug administration” value ([1]; 3 mg/kg) is reported as 47.4 ± 4.8 cmH2O, the “leak point pressure increase” value ([1]; 3 mg/kg) is reported as −4.8 ± 2.6 cmH2O and the “leak point pressure before drug administration” value ([1]; dose group 3 mg/kg) is reported as 52.2 ± 3.4 cmH2O. The “effect on leak point pressure” value [1] was “showed no effect”, the “leak point pressure after drug administration” value ([2]; 3 mg/kg) was 57.0 ± 5.1 cmH2O and the “leak point pressure increase” value ([2]; 3 mg/kg) was 1.9 ± 0.5 cmH2O. The “leak point pressure before drug administration” value ([2]; dose group 3 mg/kg) was 55.1 ± 4.7 cmH2O and the “effect on leak point pressure” value [2] was “showed no effect”.

In the case of c1cc2c(c(N3CCNCC3)c1)OCCO2 [eltoprazine], the “leak point pressure after drug administration” value ([1]; 1 mg/kg) is reported as 55.2 ± 4.5 cmH2O, the “leak point pressure increase” value ([1]; 1 mg/kg) is reported as 6.1 ± 1.7 cmH2O and the “leak point pressure after drug administration” value ([1]; 3 mg/kg) is reported as 63.2 ± 5.6 cmH2O. The “leak point pressure increase” value ([1]; 3 mg/kg) was 15.8 ± 3.1 cmH2O, the “leak point pressure before drug administration” value ([1]; dose group 1 mg/kg) was 49.2 ± 5.2 cmH2O and the “leak point pressure before drug administration” value ([1]; dose group 3 mg/kg) was 47.4 ± 5.5 cmH2O. The “effect on leak point pressure” value [1] was “increased the leak point pressure significantly”, the “leak point pressure after drug administration” value ([2]; 1 mg/kg) was 76.7 ± 4.7 cmH2O and the “leak point pressure increase” value ([2]; 1 mg/kg) was 8.0 ± 2.8 cmH2O. For the same compound, the “leak point pressure after drug administration” value ([2]; 3 mg/kg) was 74.6 ± 2.3 cmH2O, the “leak point pressure increase” value ([2]; 3 mg/kg) was 13.5 ± 1.0 cmH2O and the “leak point pressure before drug administration” value ([2]; dose group 1 mg/kg) was 68.6 ± 6.1 cmH2O. For the same compound, the “leak point pressure before drug administration” value ([2]; dose group 3 mg/kg) was 61.1 ± 2.4 cmH2O and the “effect on leak point pressure” value [2] was “increased the leak point pressure significantly”.

With CNS(=O)(=O)Cc1ccc2[nH]cc(CCN(C)C)c2c1 [sumatryptan] the “leak point pressure after drug administration” value ([1]; 1 mg/kg) was 42.2 ± 2.0 cmH2O and 44.9 ± 9.1 cmH2O, the “leak point pressure after drug administration” value ([1]; 3 mg/kg) was 54.4 ± 7.5 cmH2O and the “leak point pressure increase” value ([1]; 3 mg/kg) was 1.5 ± 2.6 cmH2O. The “leak point pressure before drug administration” value ([1]; dose group 1 mg/kg) was 44.2 ± 2.6 cmH2O and 43.2 ± 8.3 cmH2O, the “leak point pressure before drug administration” value ([1]; dose group 3 mg/kg) was 52.9 ± 7.8 cmH2O and the “effect on leak point pressure” value [1] was “showed no effect”.
